Measured values taken from patent publication US11691949B2, “Quinoline sulfonamide compounds and their use as antibacterial agents” (OTAGO INNOVATION LIMITED, priority 2017, dated 2023).
≈ marks a conversion by molar mass, not a printed value. Where two headings read alike, the source gives them in different places.

Experiments:
Format in all cases: cell-based
[1] = tested on: E. coli ATCC 10596; experiment: MIC by broth microdilution, E. coli; details: Escherichia coli
Experimental: (§1) Antibacterial susceptibility testing was performed in triplicate (biological) by measuring minimum inhibitory concentrations (MICs) by broth microdilution in 96-well flat bottom microtiter plates (ThermoFisher Scientific, New Zealand). S. uberis ATCC 19436, S. aureus ATCC 6538, or E. coli ATCC 10596 cells grown overnight were diluted to an OD600 of approximately 0.025, so that the final concentration of cells in the MIC assay was approximately 5×10^5 cfu/mL in media as follows: S. uberis; Todd Hewitt Broth (THB), S. aureus; Tryptic Soy Broth (TSB) and Cation Adjusted Muller Hinton Broth (CAMHB), and E. coli; Lysogeny Borth (LB) and CAMHB, before being dispensed into microtiter wells. As required additional sterile Zinc Sulphate (Heptahydrate) was supplemented into the media, so the final concentration was 50 μM. Test compounds were added to starting wells and two-fold serial dilutions were undertaken to generate a range of inhibitor concentrations at a final volume of 200 μl. Media and test compound-free (untreated) controls were included in each microtiter plate in triplicate. After 24 h incubation at 37° C. and 200 rpm, the OD600 of wells were read using a Varioskan Flash plate reader (ThermoFisher Scientific, New Zealand). The MIC was reported as the lowest concentration of the test compound for which no growth occurred, as determined by OD600 readings. The minimum bactericidal concentration (MBC) was determined using the Miles-Misra drop-plate method to measure the viability of cells in response to test compound challenge.

[2] = tested on: S. uberis ATCC 19436; experiment: MIC by broth microdilution, S. uberis; details: Streptococcus uberis
Experimental: as §1

[3] = tested on: S. aureus ATCC 6538; experiment: MIC by broth microdilution, S. aureus; details: Staphylococcus aureus
Experimental: as §1

[4] = ATCC 10536 / ATCC 10596, No Zinc, read-out: E. coli ATCC 10536 MIC
[5] = ATCC 10536 / ATCC 10596, Zinc (50 μM), read-out: E. coli ATCC 10536 MIC
[6] = ATCC19436, No Zinc, read-out: S. uberis ATCC 19436 MIC
[7] = ATCC19436, Zinc (50 μM), read-out: S. uberis ATCC 19436 MIC
[8] = ATCC6538, No Zinc, read-out: S. aureus ATCC 6538 MIC
[9] = ATCC6538, Zinc (50 μM), read-out: S. aureus ATCC 6538 MIC

Structure (SMILES)	MIC [1, 4]	MIC [1, 5]	MIC [2, 6]	MIC [2, 7]	MIC [3, 8]	MIC [3, 9]	MIC ([1]; ATCC 10536 / ATCC 10596, read-out: E. coli ATCC 10536 MIC, No Zinc)	MIC ([1]; ATCC 10536 / ATCC 10596, read-out: E. coli ATCC 10536 MIC, Zinc (50 μM))	MIC ([2]; ATCC19436, read-out: S. uberis ATCC 19436 MIC, No Zinc)	MIC ([2]; ATCC19436, read-out: S. uberis ATCC 19436 MIC, Zinc (50 μM))	MIC ([3]; ATCC6538, read-out: S. aureus ATCC 6538 MIC, No Zinc)	MIC ([3]; ATCC6538, read-out: S. aureus ATCC 6538 MIC, Zinc (50 μM))
CC(C)(C)OC(=O)N=C(NCCNCc1ccc2cccc(NS(=O)(=O)c3ccc(C(F)(F)F)cc3)c2n1)NC(=O)OC(C)(C)C [ZDR139, N-(2-(((N,N′-Bis-Boc-2-Guanidinoethyl)amino)methyl)quinolin-8-yl)-4-(trifluoromethyl)benzenesulfonamide]	> 256 µg/mL	> 256 µg/mL	64 µg/mL (≈ 96 µM)	0.125 µg/mL (≈ 0.187 µM)	256 µg/mL (≈ 384 µM)	256 µg/mL (≈ 384 µM)						
O=S(=O)(Nc1cccc2ccc(CN3CCOCC3)nc12)c1ccc(C(F)(F)F)cc1 [ZDR029, N-(2-((Morpholin-4-yl)methyl)quinolin-8-yl)-4-(trifluoromethyl)-benzenesulfonamide]	> 256 µg/mL	> 256 µg/mL	> 256 µg/mL	0.25 µg/mL (≈ 0.554 µM)	> 256 µg/mL	> 256 µg/mL						
O=S(=O)(Nc1cccc2ccc(CNCCOCCOCCO)nc12)c1ccc(C(F)(F)F)cc1 [ZDR130, N-(2-(((2-(2-(2-Hydroxyethoxy)ethoxy)ethyl)amino)methyl)quinolin-8-yl)-4-(trifluoromethyl)benzenesulfonamide]	256 µg/mL (≈ 499 µM)	256 µg/mL (≈ 499 µM)	64 µg/mL (≈ 125 µM)	1 µg/mL (≈ 1.95 µM)	128 µg/mL (≈ 249 µM)	256 µg/mL (≈ 499 µM)						
CN(C)Cc1ccc2cccc(NS(=O)(=O)c3cccc(Cl)c3Cl)c2n1 [ZDR336, 2,3-Dichloro-N-(2-((dimethylamino)methyl)quinolin-8-yl)benzenesulfonamide]	> 256 µg/mL	> 256 µg/mL	64 µg/mL (≈ 156 µM)	0.0625 µg/mL (≈ 0.152 µM)	64 µg/mL (≈ 156 µM)	128 µg/mL (≈ 312 µM)						
CN(C)Cc1ccc2cccc(NS(=O)(=O)c3cccc(Cl)c3)c2n1 [ZDR084, 3-Chloro-N-(2-((dimethylamino)methyl)quinolin-8-yl)benzenesulfonamide]	256 µg/mL (≈ 681 µM)	> 256 µg/mL	128 µg/mL (≈ 341 µM)	0.0625 µg/mL (≈ 0.166 µM)	256 µg/mL (≈ 681 µM)	> 256 µg/mL						
CN(C)Cc1ccc2cccc(NS(=O)(=O)c3ccc(C#N)cc3)c2n1 [ZDR068, 4-Cyano-N-(2-((dimethylamino)methyl)quinolin-8-yl)benzenesulfonamide]	> 256 µg/mL	> 256 µg/mL	> 256 µg/mL	1 µg/mL (≈ 2.73 µM)	> 256 µg/mL	> 256 µg/mL						
CN(C)Cc1ccc2cccc(NS(=O)(=O)c3cn(C)cn3)c2n1 [ZDR195, N-(2-((Dimethylamino)methyl)quinolin-8-yl)-1-methyl-1H-imidazole-4-sulfonamide]	> 256 µg/mL	> 256 µg/mL	> 256 µg/mL	32 µg/mL (≈ 92.6 µM)	> 256 µg/mL	> 256 µg/mL						
O=S(=O)(Nc1cccc2ccc(CNCC3CC3)nc12)c1ccc(C(F)(F)F)cc1 [ZDR087, N-(2-(((Cyclopropylmethyl)amino)methyl)quinolin-8-yl)-4-(trifluoromethyl)benzenesulfonamide]	256 µg/mL (≈ 588 µM)	> 256 µg/mL	256 µg/mL (≈ 588 µM)	0.25 µg/mL (≈ 0.574 µM)	128 µg/mL (≈ 294 µM)	> 256 µg/mL						
CN(C)Cc1ccc2cccc(NS(=O)(=O)c3cccc(C(F)(F)F)c3)c2n1 [ZDR074, N-(2-((Dimethylamino)methyl)quinolin-8-yl)-3-(trifluoromethyl)benzenesulfonamide]	256 µg/mL (≈ 625 µM)	256 µg/mL (≈ 625 µM)	> 256 µg/mL	0.0625 µg/mL (≈ 0.153 µM)	> 256 µg/mL	> 256 µg/mL						
CN(C)Cc1ccc2cccc(NS(=O)(=O)c3ccc(S(C)(=O)=O)cc3)c2n1 [ZDR071, N-(2-((Dimethylamino)methyl)quinolin-8-yl)-4-(methylsulfonyl)benzenesulfonamide]	> 256 µg/mL	> 256 µg/mL	> 256 µg/mL	4 µg/mL (≈ 9.53 µM)	> 256 µg/mL	> 256 µg/mL						
CCCNCc1ccc2cccc(NS(=O)(=O)c3ccc(C(F)(F)F)cc3)c2n1 [ZDR026, N-(2-((Propylamino)methyl)quinolin-8-yl)-4-(trifluoromethyl)-benzenesulfonamide]	> 256 µg/mL	> 256 µg/mL	64 µg/mL (≈ 151 µM)	0.125 µg/mL (≈ 0.295 µM)	32 µg/mL (≈ 75.6 µM)	> 256 µg/mL						
CN(C)Cc1ccc2cccc(NS(=O)(=O)c3ccc(Cl)cc3)c2n1 [ZDR064, 4-Chloro-N-(2-((dimethylamino)methyl)quinolin-8-yl)benzenesulfonamide]	> 256 µg/mL	> 256 µg/mL	> 256 µg/mL	0.0625 µg/mL (≈ 0.166 µM)	128 µg/mL (≈ 341 µM)	256 µg/mL (≈ 681 µM)						
CN(CCN(C)Cc1ccc2cccc(NS(=O)(=O)c3ccc(C(F)(F)F)cc3)c2n1)Cc1ccc2cccc(NS(=O)(=O)c3ccc(C(F)(F)F)cc3)c2n1 [ZDR036, N,N′-(((Ethane-1,2-diylbis(methylazanediyl))bis(methylene))-bis(quinoline-2,8-diyl))bis(4-(trifluoromethyl)benzenesulfonamide)]	> 256 µg/mL	> 256 µg/mL	> 256 µg/mL	> 256 µg/mL	> 256 µg/mL	> 256 µg/mL						
CN(C)Cc1ccc2cccc(NS(=O)(=O)CC3CC3)c2n1 [ZDR503, 1-Cyclopropyl-N-(2-((dimethylamino)methyl)quinolin-8-yl)methanesulfonamide]	> 256 µg/mL	> 256 µg/mL	> 256 µg/mL	0.125 µg/mL (≈ 0.391 µM)	> 256 µg/mL	256 µg/mL (≈ 801 µM)						
CN(C)Cc1ccc2cccc(NS(=O)(=O)C3CCNCC3)c2n1 [ZDR263, N-(2-((Dimethylamino)methyl)quinolin-8-yl)piperidine-4-sulfonamide di-trifluoroacetate]							> 256 µg/mL	> 256 µg/mL	> 256 µg/mL	256 µg/mL (≈ 735 µM)	> 256 µg/mL	> 256 µg/mL
O=S(=O)(Nc1cccc2ccc(/C=N/OCc3ccccc3)nc12)c1ccc(C(F)(F)F)cc1 [ZDR137, (E)-N-(2-(((Benzyloxy)imino)methyl)quinolin-8-yl)-4-(trifluoromethyl)benzenesulfonamide]	> 256 µg/mL	> 256 µg/mL	> 256 µg/mL	0.125 µg/mL (≈ 0.257 µM)	> 256 µg/mL	> 256 µg/mL						
CN/N=C/c1ccc2cccc(NS(=O)(=O)c3ccc(C(F)(F)F)cc3)c2n1 [ZDR153, (E)-N-(2-((2-Methylhydrazineylidene)methyl)quinolin-8-yl)-4-(trifluoromethyl)benzenesulfonamide]	> 256 µg/mL	> 256 µg/mL	> 256 µg/mL	0.5 µg/mL (≈ 1.22 µM)	64 µg/mL (≈ 157 µM)	64 µg/mL (≈ 157 µM)						
O=S(=O)(Nc1cccc2ccc(CN(Cc3ccccn3)Cc3ccccn3)nc12)c1ccc(C(F)(F)F)cc1 [ZDR096, N-(2-((Bis(pyridin-2-ylmethyl)amino)methyl)quinolin-8-yl)-4-(trifluoromethyl)benzenesulfonamide]	> 256 µg/mL	> 256 µg/mL	64 µg/mL (≈ 114 µM)	4 µg/mL (≈ 7.1 µM)	> 256 µg/mL	> 256 µg/mL						
